Legend:
[1] = target: kinase panel containing either 359 or 386 distinct kinases; test: Competition binding assay, selectivity score (S10) against a panel of kinases; conditions: compounds at 10 μM; fraction of kinases with percent of control less than 10
Description: Competition binding assays used herein were developed, validated and performed as described in Fabian et al., Nature Biotechnology 2005, 23, 329-336. Kinases were produced as fusions to T7 phage (See, Fabian et al. or WO04/015142) or alternatively, the kinases were expressed in HEK-293 cells and subsequently tagged with DNA for PCR detection (See, WO08/005,310). […] The liganded beads were blocked with excess biotin and washed with blocking buffer (SeaBlock (Pierce), 1% BSA, 0.05% Tween 20, 1 mM DTT) to remove unbound ligand and to reduce non-specific binding. […] Test compounds were prepared as 100× stocks in DMSO and diluted into the aqueous environment. Kds were determined using an eleven point threefold serial dilutions. DMSO or control compounds were was added to control assays lacking a test compound. Primary screen assays were performed in polypropylene 384-well plates in a final volume of 20-40 μL, while Kd determinations were performed in polystyrene 96-well plates in a final volume of […]. […] The kinase concentration in the eluates was measured by quantitative PCR.
A selectivity score (S10) is a quantitative measure of selectivity of a compound against a panel of kinases. An S10 was calculated for a compound by dividing the number of kinases found to have a percent of control (DMSO) less than 10 by the total number of distinct kinases tested (excluding mutant variants). Percent of control (POC) is calculated by subtracting the signal of the control compound
(POC=0) from the signal of the test compound and dividing the outcome by the signal of DMSO (POC=100) minus the signal of the control compound. For the compounds disclosed herein, S10 scores were obtained by testing the compounds at 10 μM concentration in a kinase panel containing either 359 or 386 distinct kinases.

CSF1R (human) = target: T1, CSF1R (human) (Homo sapiens, UniProt P07333); test: Competition binding assay, CSF1R (human) Kd
T1 construct: made in house; host or cells: T7 phage display or HEK-293 cells (alternatives, not resolved per kinase)
T1 sequence (P07333 20-972): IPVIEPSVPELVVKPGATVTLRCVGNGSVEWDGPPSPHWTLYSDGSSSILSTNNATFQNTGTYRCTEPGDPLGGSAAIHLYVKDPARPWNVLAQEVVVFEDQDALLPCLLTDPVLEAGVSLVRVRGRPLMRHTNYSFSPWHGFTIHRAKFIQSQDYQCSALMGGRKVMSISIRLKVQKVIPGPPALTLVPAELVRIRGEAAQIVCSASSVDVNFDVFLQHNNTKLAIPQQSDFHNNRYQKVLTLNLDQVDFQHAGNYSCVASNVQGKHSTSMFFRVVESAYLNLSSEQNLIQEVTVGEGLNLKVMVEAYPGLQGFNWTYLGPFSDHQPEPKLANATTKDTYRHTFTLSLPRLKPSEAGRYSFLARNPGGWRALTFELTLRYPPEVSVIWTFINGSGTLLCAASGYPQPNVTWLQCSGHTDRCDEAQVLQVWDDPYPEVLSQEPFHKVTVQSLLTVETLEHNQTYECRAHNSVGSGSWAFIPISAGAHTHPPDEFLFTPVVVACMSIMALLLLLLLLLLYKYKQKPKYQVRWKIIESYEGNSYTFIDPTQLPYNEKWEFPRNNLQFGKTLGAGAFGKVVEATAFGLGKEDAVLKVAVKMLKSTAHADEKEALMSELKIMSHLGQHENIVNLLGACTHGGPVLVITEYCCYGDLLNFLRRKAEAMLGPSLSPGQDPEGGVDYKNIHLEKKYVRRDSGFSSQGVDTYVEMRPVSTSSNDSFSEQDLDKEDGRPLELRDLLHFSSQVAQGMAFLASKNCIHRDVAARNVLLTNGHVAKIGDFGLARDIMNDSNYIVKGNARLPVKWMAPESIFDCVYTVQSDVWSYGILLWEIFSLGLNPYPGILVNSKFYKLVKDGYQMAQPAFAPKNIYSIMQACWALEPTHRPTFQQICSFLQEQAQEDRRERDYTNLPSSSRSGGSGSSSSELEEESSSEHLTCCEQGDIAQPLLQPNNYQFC
Description: (§1) The liganded beads were blocked with excess biotin and washed with blocking buffer (SeaBlock (Pierce), 1% BSA, 0.05% Tween 20, 1 mM DTT) to remove unbound ligand and to reduce non-specific binding. […] Test compounds were prepared as 100× stocks in DMSO and diluted into the aqueous environment. Kds were determined using an eleven point threefold serial dilutions. DMSO or control compounds were was added to control assays lacking a test compound. […] The kinase concentration in the eluates was measured by quantitative PCR.

M-NFS-60 cells = test: M-NFS-60 cell proliferation assay; type: cell-based, mouse; conditions: Mus musculus; 72 hours incubation, Alamar Blue, M-CSF-dependent cells; read-out: CSF1R Cell Proliferation (M-NFS-60) IC50
Description: In certain embodiments, the compounds disclosed herein are tested in an M-NFS-60 cell proliferation assay to determine their cellular potency against CSF-1R. M-NFS-60s are mouse monocytic cells that depend on the binding of the ligand M-CSF to its receptor, CSF-1R, to proliferate Inhibition of CSF-1R kinase activity will cause reduced growth and/or cell death. This assay assesses the potency of compounds as CSF-1R inhibitors by measuring the reduction of Alamar Blue reagent by viable cells. An exemplary assay is described in the Examples section.
The compounds disclosed herein were tested in an M-NFS-60 cell proliferation assay to determine their cellular potency against CSF1R. M-NFS-60s are mouse monocytic cells that depend on the binding of the ligand M-CSF to its receptor, CSF1R, to proliferate Inhibition of CSF1R kinase activity will cause reduced growth and/or cell death. This assay assesses the potency of compounds as CSF1R inhibitors by measuring the reduction of Alamar Blue reagent by viable cells.
On day one of the experiment, M-NFS-60 cells were maintained in RPMI complete medium (Omega Scientific) plus 10% FBS supplemented with 20 ng/mL of M-CSF (R&D Systems). 96-well TC-treated, flat bottom plates were seeded at 10,000 cell/well at a volume of 100 μL per well. The cells were cultured overnight at 37° C. under 5% CO2.
On day two, compounds were added to the cells at 9 different concentrations, with half-log intervals alongside a control reference compound serving as a positive control. Final DMSO concentration was kept at 0.5% for a final volume of 200 μL. The compounds were allowed to incubate with the cells for 72 hours at 37° C. under 5% CO2.
On day five of the experiment, 40 μl of Alamar Blue reagent was added to each well and allowed to incubate for 3 hours. Alamar Blue fluorescence was read using SoftMax Pro software at 560 nm (excitation) and 590 nm (emission). IC50s were generated as an average of duplicates and represents the concentration of test compound that achieves 50% inhibition of cellular proliferation compared to control.

CSF1R (mouse) = target: T2, CSF1R (mouse) (Mus musculus, UniProt P09581); test: Competition binding assay, CSF1R (mouse) Kd
T2 construct: made in house; host or cells: T7 phage display or HEK-293 cells (alternatives, not resolved per kinase)
T2 sequence (P09581 20-977): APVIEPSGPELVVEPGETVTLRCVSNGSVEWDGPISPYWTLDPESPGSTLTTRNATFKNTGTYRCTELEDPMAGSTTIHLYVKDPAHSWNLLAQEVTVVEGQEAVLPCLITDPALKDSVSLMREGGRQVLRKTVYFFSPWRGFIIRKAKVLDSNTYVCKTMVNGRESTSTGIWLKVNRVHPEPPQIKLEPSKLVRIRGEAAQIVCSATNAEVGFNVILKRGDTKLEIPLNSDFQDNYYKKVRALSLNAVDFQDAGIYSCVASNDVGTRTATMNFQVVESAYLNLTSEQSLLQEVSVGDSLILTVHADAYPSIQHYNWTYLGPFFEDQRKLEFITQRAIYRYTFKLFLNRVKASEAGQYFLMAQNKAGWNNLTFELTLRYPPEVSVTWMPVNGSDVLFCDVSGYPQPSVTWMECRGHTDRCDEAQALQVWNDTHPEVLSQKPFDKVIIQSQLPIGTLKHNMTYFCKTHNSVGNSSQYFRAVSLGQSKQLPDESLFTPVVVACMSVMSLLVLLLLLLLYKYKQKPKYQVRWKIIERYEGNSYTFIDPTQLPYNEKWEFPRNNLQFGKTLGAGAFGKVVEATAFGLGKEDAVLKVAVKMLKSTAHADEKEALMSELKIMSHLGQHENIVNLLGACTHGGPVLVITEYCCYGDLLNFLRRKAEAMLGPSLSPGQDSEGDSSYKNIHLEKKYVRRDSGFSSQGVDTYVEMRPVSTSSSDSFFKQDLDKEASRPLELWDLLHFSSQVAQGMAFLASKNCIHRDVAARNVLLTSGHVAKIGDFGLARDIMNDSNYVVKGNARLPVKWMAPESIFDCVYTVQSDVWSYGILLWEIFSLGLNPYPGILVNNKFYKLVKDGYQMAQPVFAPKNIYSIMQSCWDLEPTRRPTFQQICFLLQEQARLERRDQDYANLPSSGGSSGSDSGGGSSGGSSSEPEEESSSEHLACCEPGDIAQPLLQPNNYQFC
Description: as §1

`CN1CCN(c2ccnc(C(=O)Nc3ccc(NC(=O)Nc4cc(C(C)(C)C)on4)cc3)c2)CC1` was tested, and the “Kinase Specificity (S10)” value [1] was “B (0.03 < B ≦ 0.05)”, the Kd (CSF1R (human)) was 3 to 10 nM and the IC50 (M-NFS-60 cells) was 100 to 250 nM. It also gave a Kd (CSF1R (mouse)) of 3 to 10 nM.
With `CC(C)(C)c1cc(NC(=O)Nc2ccc(NC(=O)c3cccc(OC4CCNCC4)n3)cc2)no1` the “Kinase Specificity (S10)” value [1] was “B (0.03 < B ≦ 0.05)”, the Kd (CSF1R (human)) was greater than 10 nM and the IC50 (M-NFS-60 cells) was greater than 1000 nM. It also gave a Kd (CSF1R (mouse)) greater than 10 nM.
For `CCN1CCC(Oc2ccc(C(=O)Nc3ccc(NC(=O)Nc4cc(C(C)(CF)CF)on4)cc3)nc2)CC1`, the “Kinase Specificity (S10)” value [1] was “B (0.03 < B ≦ 0.05)”, the Kd (CSF1R (human)) was less than 3 nM and the IC50 (M-NFS-60 cells) was no more than 100 nM. The Kd (CSF1R (mouse)) was less than 3 nM.
For `CN1CCC(Oc2ccc(C(=O)Nc3ccc(NC(=O)Nc4cc(C(C)(CF)CF)on4)cc3)nc2)CC1`, the “Kinase Specificity (S10)” value [1] was “B (0.03 < B ≦ 0.05)”, the Kd (CSF1R (human)) was less than 3 nM and the IC50 (M-NFS-60 cells) was no more than 100 nM. For the same molecule, the Kd (CSF1R (mouse)) was less than 3 nM.
In the case of `CC(CF)(CF)c1cc(NC(=O)Nc2ccc(NC(=O)c3ccc(OC4CCN(CC(F)(F)F)CC4)cn3)cc2)no1`, the “Kinase Specificity (S10)” value [1] is reported as “A (A ≦ 0.03)”, the Kd (CSF1R (human)) is reported as less than 3 nM and the IC50 (M-NFS-60 cells) is reported as 100 to 250 nM. It also gave a Kd (CSF1R (mouse)) of less than 3 nM.
In the case of `CC(C)N1CCC(Oc2ccc(C(=O)Nc3ccc(NC(=O)Nc4cc(C(C)(CF)CF)on4)cc3)nc2)CC1`, the “Kinase Specificity (S10)” value [1] is reported as “B (0.03 < B ≦ 0.05)”, the Kd (CSF1R (human)) is reported as less than 3 nM and the IC50 (M-NFS-60 cells) is reported as no more than 100 nM. The Kd (CSF1R (mouse)) was less than 3 nM.
`CCN(CC)Cc1cccc(C(=O)Nc2ccc(NC(=O)Nc3cc(C(C)(C)C)on3)cc2)n1` was tested, and the “Kinase Specificity (S10)” value [1] was “A (A ≦ 0.03)”, the Kd (CSF1R (human)) was greater than 10 nM and the IC50 (M-NFS-60 cells) was greater than 1000 nM. The Kd (CSF1R (mouse)) was greater than 10 nM.
In the case of `CC(C)(C)c1cc(NC(=O)Nc2ccc(NC(=O)c3cccc(CN)n3)cc2)no1.Cl`, the “Kinase Specificity (S10)” value [1] is reported as “A (A ≦ 0.03)”, the Kd (CSF1R (human)) is reported as greater than 10 nM and the IC50 (M-NFS-60 cells) is reported as 250 to 1000 nM. It also gave a Kd (CSF1R (mouse)) greater than 10 nM.

From US9296722B2, “Azolyl urea compounds and methods of use thereof” (Ambit Biosciences Corporation, priority 2010, dated 2016)
